{"source": "patent US10710978B2", "about": "“STK4 inhibitors for treatment of hematologic malignancies” (Dana-Farber Cancer Institute, Inc., priority 2015, dated 2020)", "test_in_all_cases": "KiNativ assay", "type_in_all_cases": "binding", "settings_in_all_cases": "H929 live cell", "key": {"ATR": {"target": "ATR (Homo sapiens (Human), UniProt Q13535)", "sequence (Q13535 whole entry)": "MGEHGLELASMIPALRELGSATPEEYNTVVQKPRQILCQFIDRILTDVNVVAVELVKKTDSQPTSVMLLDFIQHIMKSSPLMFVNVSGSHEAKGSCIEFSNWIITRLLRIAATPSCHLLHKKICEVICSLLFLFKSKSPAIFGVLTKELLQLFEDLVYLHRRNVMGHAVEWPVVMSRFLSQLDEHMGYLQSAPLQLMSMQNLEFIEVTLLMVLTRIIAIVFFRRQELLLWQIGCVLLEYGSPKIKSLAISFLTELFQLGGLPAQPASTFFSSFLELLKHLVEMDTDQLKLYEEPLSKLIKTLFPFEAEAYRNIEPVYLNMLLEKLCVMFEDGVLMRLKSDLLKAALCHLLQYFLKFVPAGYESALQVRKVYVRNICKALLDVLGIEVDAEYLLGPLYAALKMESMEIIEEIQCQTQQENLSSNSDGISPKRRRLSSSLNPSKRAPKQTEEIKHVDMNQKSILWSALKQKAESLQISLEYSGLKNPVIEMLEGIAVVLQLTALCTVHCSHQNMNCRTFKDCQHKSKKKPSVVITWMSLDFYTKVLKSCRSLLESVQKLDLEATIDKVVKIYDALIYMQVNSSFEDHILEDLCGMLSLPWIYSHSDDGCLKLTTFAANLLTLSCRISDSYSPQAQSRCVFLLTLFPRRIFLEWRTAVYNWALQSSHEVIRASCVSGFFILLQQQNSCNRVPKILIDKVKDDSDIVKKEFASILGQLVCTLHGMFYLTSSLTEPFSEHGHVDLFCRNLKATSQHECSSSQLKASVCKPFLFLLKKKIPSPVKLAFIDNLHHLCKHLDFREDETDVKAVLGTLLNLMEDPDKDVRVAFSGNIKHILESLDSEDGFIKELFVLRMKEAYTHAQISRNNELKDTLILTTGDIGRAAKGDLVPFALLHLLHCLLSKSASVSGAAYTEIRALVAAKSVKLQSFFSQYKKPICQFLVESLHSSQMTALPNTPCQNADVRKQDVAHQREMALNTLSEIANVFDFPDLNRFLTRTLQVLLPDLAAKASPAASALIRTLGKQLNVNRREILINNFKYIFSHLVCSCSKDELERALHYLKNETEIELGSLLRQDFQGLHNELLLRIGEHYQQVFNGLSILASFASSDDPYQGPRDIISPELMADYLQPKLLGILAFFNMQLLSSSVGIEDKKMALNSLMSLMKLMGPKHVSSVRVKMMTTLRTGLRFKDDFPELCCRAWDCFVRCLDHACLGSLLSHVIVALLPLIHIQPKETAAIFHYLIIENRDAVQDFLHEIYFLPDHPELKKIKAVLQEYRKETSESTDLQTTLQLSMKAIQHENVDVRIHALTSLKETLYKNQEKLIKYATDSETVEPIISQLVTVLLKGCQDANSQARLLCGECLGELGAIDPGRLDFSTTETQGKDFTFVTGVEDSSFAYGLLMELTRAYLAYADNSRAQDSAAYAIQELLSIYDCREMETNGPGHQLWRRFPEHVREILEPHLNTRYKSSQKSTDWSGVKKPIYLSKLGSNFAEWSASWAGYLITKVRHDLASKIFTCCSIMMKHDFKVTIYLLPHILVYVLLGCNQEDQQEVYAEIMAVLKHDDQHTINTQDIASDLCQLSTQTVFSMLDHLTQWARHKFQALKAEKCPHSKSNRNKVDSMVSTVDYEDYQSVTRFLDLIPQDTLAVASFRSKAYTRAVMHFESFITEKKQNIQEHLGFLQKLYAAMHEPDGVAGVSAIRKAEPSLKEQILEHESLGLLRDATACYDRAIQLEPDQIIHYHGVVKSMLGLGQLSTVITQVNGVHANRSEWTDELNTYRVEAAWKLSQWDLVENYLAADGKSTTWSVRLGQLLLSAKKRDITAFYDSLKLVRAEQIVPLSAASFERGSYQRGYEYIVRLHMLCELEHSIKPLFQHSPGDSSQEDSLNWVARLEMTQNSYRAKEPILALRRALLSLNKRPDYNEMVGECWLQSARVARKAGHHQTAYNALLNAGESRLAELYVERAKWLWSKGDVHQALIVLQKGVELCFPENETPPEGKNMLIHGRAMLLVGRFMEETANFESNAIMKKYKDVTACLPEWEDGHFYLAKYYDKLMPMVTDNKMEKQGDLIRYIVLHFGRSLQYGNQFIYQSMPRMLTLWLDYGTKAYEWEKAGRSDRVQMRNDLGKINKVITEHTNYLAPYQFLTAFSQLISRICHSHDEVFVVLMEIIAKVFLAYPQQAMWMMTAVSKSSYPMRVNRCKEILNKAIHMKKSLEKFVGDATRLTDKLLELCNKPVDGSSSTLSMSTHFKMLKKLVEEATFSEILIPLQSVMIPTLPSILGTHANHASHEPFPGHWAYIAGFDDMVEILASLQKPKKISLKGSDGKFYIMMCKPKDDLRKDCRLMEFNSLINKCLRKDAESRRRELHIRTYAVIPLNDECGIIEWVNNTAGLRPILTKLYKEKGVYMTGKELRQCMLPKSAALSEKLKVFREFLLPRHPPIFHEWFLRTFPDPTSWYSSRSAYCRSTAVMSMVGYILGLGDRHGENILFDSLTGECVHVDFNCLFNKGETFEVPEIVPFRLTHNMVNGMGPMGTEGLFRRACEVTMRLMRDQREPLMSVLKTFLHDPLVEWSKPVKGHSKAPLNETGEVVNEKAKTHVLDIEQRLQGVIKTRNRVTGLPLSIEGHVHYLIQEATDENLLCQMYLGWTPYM", "sequence (Q8WXE1 whole entry partner)": "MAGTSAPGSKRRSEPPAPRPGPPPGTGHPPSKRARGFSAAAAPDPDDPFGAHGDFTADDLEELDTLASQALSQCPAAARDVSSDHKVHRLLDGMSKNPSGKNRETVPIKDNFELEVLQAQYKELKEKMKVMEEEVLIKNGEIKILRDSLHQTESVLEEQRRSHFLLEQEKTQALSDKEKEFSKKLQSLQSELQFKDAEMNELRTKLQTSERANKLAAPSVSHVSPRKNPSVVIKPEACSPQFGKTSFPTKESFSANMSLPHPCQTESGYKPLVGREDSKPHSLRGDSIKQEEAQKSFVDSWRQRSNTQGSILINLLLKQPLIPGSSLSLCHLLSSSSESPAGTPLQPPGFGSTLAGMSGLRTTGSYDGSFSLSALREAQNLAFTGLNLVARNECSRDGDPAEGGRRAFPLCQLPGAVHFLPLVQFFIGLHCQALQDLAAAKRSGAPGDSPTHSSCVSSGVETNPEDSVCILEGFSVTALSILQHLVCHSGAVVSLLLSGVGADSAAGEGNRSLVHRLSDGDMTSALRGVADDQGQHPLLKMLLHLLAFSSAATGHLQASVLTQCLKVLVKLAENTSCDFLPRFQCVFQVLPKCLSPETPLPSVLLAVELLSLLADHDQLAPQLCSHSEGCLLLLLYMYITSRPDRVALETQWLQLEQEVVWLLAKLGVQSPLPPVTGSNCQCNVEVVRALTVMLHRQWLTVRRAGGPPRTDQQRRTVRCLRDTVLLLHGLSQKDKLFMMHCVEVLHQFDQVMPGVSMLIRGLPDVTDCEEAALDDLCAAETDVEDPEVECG", "procedure": "(§1) Biochemical IC50s of the compounds of the present disclosure against various kinases were measured in a KiNativ assay. Compounds were screened in duplicate at 10 μM in H929 live cell. IC50 was measured via Mass spectroscopy (MS)."}, "AurA": {"target": "AurA (Homo sapiens (Human), UniProt O14965)", "sequence (O14965 whole entry)": "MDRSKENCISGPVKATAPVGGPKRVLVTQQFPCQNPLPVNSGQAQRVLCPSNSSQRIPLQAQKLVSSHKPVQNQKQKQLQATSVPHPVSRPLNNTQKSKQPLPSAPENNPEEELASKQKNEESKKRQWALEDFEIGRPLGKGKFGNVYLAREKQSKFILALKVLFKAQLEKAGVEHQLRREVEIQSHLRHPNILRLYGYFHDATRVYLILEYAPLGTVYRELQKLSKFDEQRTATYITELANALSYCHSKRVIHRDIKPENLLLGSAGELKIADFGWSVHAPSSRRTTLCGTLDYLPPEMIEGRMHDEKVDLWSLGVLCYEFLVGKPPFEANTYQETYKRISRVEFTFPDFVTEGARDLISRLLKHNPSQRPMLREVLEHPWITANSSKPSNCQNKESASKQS", "procedure": "as §1"}, "CHK1": {"target": "CHK1 (Homo sapiens (Human), UniProt O14757)", "procedure": "as §1"}, "CHK2": {"target": "CHK2 (Homo sapiens (Human), UniProt O96017)", "procedure": "as §1"}, "EphB2": {"target": "EphB2 (Homo sapiens (Human), UniProt P29323)", "procedure": "as §1"}, "GSK3A": {"target": "GSK3A (Homo sapiens (Human), UniProt P49840)", "sequence (P49840 whole entry)": "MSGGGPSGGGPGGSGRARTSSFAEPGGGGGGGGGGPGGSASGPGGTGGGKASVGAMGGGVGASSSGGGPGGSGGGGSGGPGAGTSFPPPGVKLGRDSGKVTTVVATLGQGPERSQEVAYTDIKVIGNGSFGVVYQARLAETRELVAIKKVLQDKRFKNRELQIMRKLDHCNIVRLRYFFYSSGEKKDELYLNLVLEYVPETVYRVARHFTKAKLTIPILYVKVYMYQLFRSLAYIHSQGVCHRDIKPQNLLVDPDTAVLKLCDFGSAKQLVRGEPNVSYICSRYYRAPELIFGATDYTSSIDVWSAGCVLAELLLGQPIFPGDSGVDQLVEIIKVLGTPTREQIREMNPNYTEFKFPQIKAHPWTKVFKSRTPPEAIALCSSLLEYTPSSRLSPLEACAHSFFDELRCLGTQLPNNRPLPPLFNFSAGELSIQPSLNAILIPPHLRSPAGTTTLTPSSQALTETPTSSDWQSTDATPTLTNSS", "procedure": "as §1"}, "ILK": {"target": "ILK (Homo sapiens (Human), UniProt Q13418)", "procedure": "as §1"}, "IRAK1": {"target": "IRAK1 (Homo sapiens (Human), UniProt P51617)", "procedure": "as §1"}, "JAK1 domain2": {"target": "JAK1 domain2 (Homo sapiens (Human), UniProt P23458)", "procedure": "as §1"}, "JNK1, JNK2, JNK3": {"system": "JNK1, JNK2, JNK3", "procedure": "as §1"}, "KHS1": {"target": "KHS1 (Homo sapiens (Human), UniProt Q9Y4K4)", "procedure": "as §1"}, "LOK": {"target": "LOK (Homo sapiens (Human), UniProt O94804)", "procedure": "as §1"}, "MAP2K1": {"target": "MAP2K1 (Homo sapiens (Human), UniProt Q02750)", "procedure": "as §1"}, "MAP2K3": {"target": "MAP2K3 (Homo sapiens (Human), UniProt P46734)", "procedure": "as §1"}, "MAP2K6": {"target": "MAP2K6 (Homo sapiens (Human), UniProt P52564)", "sequence (P52564 whole entry)": "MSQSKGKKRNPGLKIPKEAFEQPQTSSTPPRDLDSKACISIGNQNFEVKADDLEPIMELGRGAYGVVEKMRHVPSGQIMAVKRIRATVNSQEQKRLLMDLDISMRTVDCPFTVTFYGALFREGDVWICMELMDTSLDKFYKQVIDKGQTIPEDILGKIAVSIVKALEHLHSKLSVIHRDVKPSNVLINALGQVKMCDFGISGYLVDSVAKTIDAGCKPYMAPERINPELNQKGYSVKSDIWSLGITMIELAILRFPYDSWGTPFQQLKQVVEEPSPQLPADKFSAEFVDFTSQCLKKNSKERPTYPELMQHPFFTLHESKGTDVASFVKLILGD", "procedure": "as §1"}, "MAP2K7": {"target": "MAP2K7 (Homo sapiens (Human), UniProt O14733)", "procedure": "as §1"}, "MAP3K1": {"target": "MAP3K1 (Homo sapiens (Human), UniProt Q13233)", "procedure": "as §1"}, "MAPKAPK2, MAPKAPK3": {"system": "MAPKAPK2, MAPKAPK3", "procedure": "as §1"}, "MARK4": {"target": "MARK4 (Homo sapiens (Human), UniProt Q96L34)", "procedure": "as §1"}, "MAST3": {"target": "MAST3 (Homo sapiens (Human), UniProt O60307)", "procedure": "as §1"}, "NDR1": {"target": "NDR1 (Homo sapiens (Human), UniProt Q15208)", "procedure": "as §1"}, "NDR2": {"target": "NDR2 (Homo sapiens (Human), UniProt Q9Y2H1)", "procedure": "as §1"}, "NEK1": {"target": "NEK1 (Homo sapiens (Human), UniProt Q96PY6)", "procedure": "as §1"}, "NEK8": {"target": "NEK8 (Homo sapiens (Human), UniProt Q86SG6)", "procedure": "as §1"}, "OSR1": {"target": "OSR1 (Homo sapiens (Human), UniProt O95747)", "procedure": "as §1"}, "PHKg2": {"target": "PHKg2 (Homo sapiens (Human), UniProt P15735)", "procedure": "as §1"}, "PI4KA, PI4KAP2": {"system": "PI4KA, PI4KAP2", "procedure": "as §1"}, "PI4KB": {"target": "PI4KB (Homo sapiens (Human), UniProt Q9UBF8)", "procedure": "as §1"}, "PIK3C3": {"target": "PIK3C3 (Homo sapiens (Human), UniProt Q8NEB9)", "procedure": "as §1"}, "PIP4K2C": {"target": "PIP4K2C (Homo sapiens (Human), UniProt Q8TBX8)", "sequence (Q8TBX8 whole entry)": "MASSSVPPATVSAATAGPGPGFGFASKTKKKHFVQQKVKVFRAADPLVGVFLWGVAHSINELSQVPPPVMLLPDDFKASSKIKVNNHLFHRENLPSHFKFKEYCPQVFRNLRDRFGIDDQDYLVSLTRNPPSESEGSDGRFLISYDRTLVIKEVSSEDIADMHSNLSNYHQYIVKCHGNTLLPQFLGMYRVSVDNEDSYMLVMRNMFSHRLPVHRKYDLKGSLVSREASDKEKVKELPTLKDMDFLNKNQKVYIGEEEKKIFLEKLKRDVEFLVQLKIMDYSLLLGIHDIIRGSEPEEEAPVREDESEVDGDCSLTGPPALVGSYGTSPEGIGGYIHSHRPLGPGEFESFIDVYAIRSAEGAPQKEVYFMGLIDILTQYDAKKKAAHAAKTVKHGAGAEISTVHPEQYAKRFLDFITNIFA", "procedure": "as §1"}, "[1]": {"system": "RSK1 domain1, RSK2 domain1, RSK3 domain1", "procedure": "as §1"}, "TYK2 domain2": {"target": "TYK2 domain2 (Homo sapiens (Human), UniProt P29597)", "procedure": "as §1"}, "ZAK": {"target": "ZAK (Homo sapiens (Human), UniProt Q9NYL2)", "procedure": "as §1"}}, "note": "Where two headings read alike, the source gives them in different places."}
{"smiles": "CN(C1CC1)S(=O)(=O)c1ccc(-c2cnc(N)c(-c3ccc4c(c3)CCNC4=O)c2)c(F)c1", "note": "[Compound I-28, 4-(6-amino-5-(1-oxo-1,2,3,4-tetrahydroisoquinolin-6-yl)pyridin-3-yl)-N-cyclopropyl-3-fluoro-N-methylbenzenesulfonamide]", "values": [{"measurement": "inhibition at 10 µM", "setting": "ATR; read-out: % inhibition (range)", "value": 0, "unit": "%"}, {"measurement": "inhibition at 10 µM", "setting": "ATR; read-out: inhibition (10 μM)", "value": -37.5, "unit": "%"}, {"measurement": "inhibition (10 μM)", "setting": "AurA", "value": 33.1, "unit": "%"}, {"measurement": "inhibition at 10 µM", "setting": "AurA; read-out: % inhibition (range)", "value": 0, "unit": "%"}, {"measurement": "inhibition at 10 µM", "setting": "AurA; read-out: inhibition (10 μM)", "value": 27.5, "unit": "%"}, {"measurement": "inhibition at 10 µM", "setting": "CHK1; read-out: % inhibition (range)", "value": 0, "unit": "%"}, {"measurement": "inhibition at 10 µM", "setting": "CHK1; read-out: inhibition (10 μM)", "value": 27.5, "unit": "%"}, {"measurement": "inhibition at 10 µM", "setting": "CHK2; read-out: % inhibition (range)", "value": 0, "unit": "%"}, {"measurement": "inhibition at 10 µM", "setting": "CHK2; read-out: inhibition (10 μM)", "value": 6.8, "unit": "%"}, {"measurement": "inhibition at 10 µM", "setting": "EphB2; read-out: % inhibition (range)", "value": 0, "unit": "%"}, {"measurement": "inhibition at 10 µM", "setting": "EphB2; read-out: inhibition (10 μM)", "value": -2, "unit": "%"}, {"measurement": "inhibition at 10 µM", "setting": "GSK3A; read-out: % inhibition (range)", "value": "> 90", "unit": "%"}, {"measurement": "inhibition at 10 µM", "setting": "GSK3A; read-out: inhibition (10 μM)", "value": 93.5, "unit": "%"}, {"measurement": "inhibition at 10 µM", "setting": "ILK; read-out: % inhibition (range)", "value": 0, "unit": "%"}, {"measurement": "inhibition at 10 µM", "setting": "ILK; read-out: inhibition (10 μM)", "value": -5.8, "unit": "%"}, {"measurement": "inhibition at 10 µM", "setting": "IRAK1; read-out: % inhibition (range)", "value": "50 to 75", "unit": "%"}, {"measurement": "inhibition at 10 µM", "setting": "IRAK1; read-out: inhibition (10 μM)", "value": 67.8, "unit": "%"}, {"measurement": "inhibition at 10 µM", "setting": "JAK1 domain2; read-out: % inhibition (range)", "value": 0, "unit": "%"}, {"measurement": "inhibition at 10 µM", "setting": "JAK1 domain2; read-out: inhibition (10 μM)", "value": -33.7, "unit": "%"}, {"measurement": "% inhibition (range)", "setting": "JNK1, JNK2, JNK3; 10 μM", "value": 0.0, "unit": "%"}, {"measurement": "inhibition (10 μM)", "setting": "JNK1, JNK2, JNK3", "value": "−12.9", "unit": "%"}, {"measurement": "inhibition at 10 µM", "setting": "KHS1; read-out: % inhibition (range)", "value": "75 to 90", "unit": "%"}, {"measurement": "inhibition at 10 µM", "setting": "KHS1; read-out: inhibition (10 μM)", "value": 75.6, "unit": "%"}, {"measurement": "inhibition at 10 µM", "setting": "LOK; read-out: % inhibition (range)", "value": "75 to 90", "unit": "%"}, {"measurement": "inhibition at 10 µM", "setting": "LOK; read-out: inhibition (10 μM)", "value": 85.5, "unit": "%"}, {"measurement": "inhibition at 10 µM", "setting": "MAP2K1; read-out: % inhibition (range)", "value": 0, "unit": "%"}, {"measurement": "inhibition at 10 µM", "setting": "MAP2K1; read-out: inhibition (10 μM)", "value": -5.5, "unit": "%"}, {"measurement": "inhibition at 10 µM", "setting": "MAP2K3; read-out: % inhibition (range)", "value": 0, "unit": "%"}, {"measurement": "inhibition at 10 µM", "setting": "MAP2K3; read-out: inhibition (10 μM)", "value": 1.4, "unit": "%"}, {"measurement": "inhibition at 10 µM", "setting": "MAP2K6; read-out: % inhibition (range)", "value": 0, "unit": "%"}, {"measurement": "inhibition at 10 µM", "setting": "MAP2K6; read-out: inhibition (10 μM)", "value": 27.6, "unit": "%"}, {"measurement": "inhibition at 10 µM", "setting": "MAP2K7; read-out: % inhibition (range)", "value": 0, "unit": "%"}, {"measurement": "inhibition at 10 µM", "setting": "MAP2K7; read-out: inhibition (10 μM)", "value": -0.5, "unit": "%"}, {"measurement": "inhibition at 10 µM", "setting": "MAP3K1; read-out: % inhibition (range)", "value": "> 90", "unit": "%"}, {"measurement": "inhibition at 10 µM", "setting": "MAP3K1; read-out: inhibition (10 μM)", "value": 91.1, "unit": "%"}, {"measurement": "% inhibition (range)", "setting": "MAPKAPK2, MAPKAPK3; 10 μM", "value": 0.0, "unit": "%"}, {"measurement": "inhibition (10 μM)", "setting": "MAPKAPK2, MAPKAPK3", "value": "−5.0", "unit": "%"}, {"measurement": "inhibition at 10 µM", "setting": "MARK4; read-out: % inhibition (range)", "value": 0, "unit": "%"}, {"measurement": "inhibition at 10 µM", "setting": "MARK4; read-out: inhibition (10 μM)", "value": 23.1, "unit": "%"}, {"measurement": "inhibition at 10 µM", "setting": "MAST3; read-out: % inhibition (range)", "value": 0, "unit": "%"}, {"measurement": "inhibition at 10 µM", "setting": "MAST3; read-out: inhibition (10 μM)", "value": 14.2, "unit": "%"}, {"measurement": "inhibition at 10 µM", "setting": "NDR1; read-out: % inhibition (range)", "value": 0, "unit": "%"}, {"measurement": "inhibition at 10 µM", "setting": "NDR1; read-out: inhibition (10 μM)", "value": 24.6, "unit": "%"}, {"measurement": "inhibition at 10 µM", "setting": "NDR2; read-out: % inhibition (range)", "value": 0, "unit": "%"}, {"measurement": "inhibition at 10 µM", "setting": "NDR2; read-out: inhibition (10 μM)", "value": 24.2, "unit": "%"}, {"measurement": "inhibition at 10 µM", "setting": "NEK1; read-out: % inhibition (range)", "value": 0, "unit": "%"}, {"measurement": "inhibition at 10 µM", "setting": "NEK1; read-out: inhibition (10 μM)", "value": -14.1, "unit": "%"}, {"measurement": "inhibition at 10 µM", "setting": "NEK8; read-out: % inhibition (range)", "value": 0, "unit": "%"}, {"measurement": "inhibition at 10 µM", "setting": "NEK8; read-out: inhibition (10 μM)", "value": -3.4, "unit": "%"}, {"measurement": "inhibition at 10 µM", "setting": "OSR1; read-out: % inhibition (range)", "value": 0, "unit": "%"}, {"measurement": "inhibition at 10 µM", "setting": "OSR1; read-out: inhibition (10 μM)", "value": 22.8, "unit": "%"}, {"measurement": "inhibition at 10 µM", "setting": "PHKg2; read-out: % inhibition (range)", "value": 0, "unit": "%"}, {"measurement": "inhibition at 10 µM", "setting": "PHKg2; read-out: inhibition (10 μM)", "value": 17.3, "unit": "%"}, {"measurement": "% inhibition (range)", "setting": "PI4KA, PI4KAP2; 10 μM", "value": 0.0, "unit": "%"}, {"measurement": "inhibition (10 μM)", "setting": "PI4KA, PI4KAP2", "value": "−13.2", "unit": "%"}, {"measurement": "inhibition at 10 µM", "setting": "PI4KB; read-out: % inhibition (range)", "value": 0, "unit": "%"}, {"measurement": "inhibition at 10 µM", "setting": "PI4KB; read-out: inhibition (10 μM)", "value": 16.7, "unit": "%"}, {"measurement": "inhibition at 10 µM", "setting": "PIK3C3; read-out: % inhibition (range)", "value": "> 100", "unit": "%"}, {"measurement": "inhibition at 10 µM", "setting": "PIK3C3; read-out: inhibition (10 μM)", "value": -107, "unit": "%"}, {"measurement": "inhibition at 10 µM", "setting": "PIP4K2C; read-out: % inhibition (range)", "value": 0, "unit": "%"}, {"measurement": "inhibition at 10 µM", "setting": "PIP4K2C; read-out: inhibition (10 μM)", "value": 11.8, "unit": "%"}, {"measurement": "% inhibition (range)", "setting": "[1]; 10 μM", "value": 0.0, "unit": "%"}, {"measurement": "inhibition (10 μM)", "setting": "[1]", "value": 13.3, "unit": "%"}, {"measurement": "inhibition at 10 µM", "setting": "TYK2 domain2; read-out: % inhibition (range)", "value": 0, "unit": "%"}, {"measurement": "inhibition at 10 µM", "setting": "TYK2 domain2; read-out: inhibition (10 μM)", "value": 3.8, "unit": "%"}, {"measurement": "inhibition at 10 µM", "setting": "ZAK; read-out: % inhibition (range)", "value": 0, "unit": "%"}, {"measurement": "inhibition at 10 µM", "setting": "ZAK; read-out: inhibition (10 μM)", "value": 18.2, "unit": "%"}]}
